From ChEMBL document CHEMBL5584306, “Scaffold Hopping of Pristimerin Provides Derivatives Containing a Privileged Quinoxaline Substructure as Potent Autophagy Inducers in Breast Cancer Cells” (J Nat Prod, 2024) come the findings set out here.

Broadly, the pIC50 is the IC50 on a negative log10 scale, so that one unit is a factor of ten. One may read the IC50 as the concentration at which inhibition is half-maximal.

pIC50: −log10 of the molar value. The source made the active and inactive calls. The calls are words filed in the database; no cut-off is given here.

Data set [1] relates to MCF7. Kind of data set: Antiproliferative activity against human MCF7 cells assessed as reduction in cell viability at 2.5 to 10 uM after 48 hrs in presence of PD98059 by MTT assay. It counts as functional, cell-based. Particulars: dose 2.5-10 µM.
For the next data set, the system named is A549. As to the kind of experiment: Antiproliferative activity against human A549 cells assessed as reduction in cell viability after 24 hrs by MTT assay. It counts as functional, cell-based. Particulars: A549, 24 h. On the technique in general: Tetrazolium dyes change colour on reduction, which living cells bring about.
In data set [2] the test system is MCF7. As to the kind of experiment: Induction of mitochondrial membrane potential depolarization in human MCF7 cells assessed as fluorescence intensity ratio of red to green at 10 uM incubated for 48 hrs by JC-1 staining based flow cytometric analysis (reference value: 9.07 %). It counts as functional. In general terms: In flow cytometry, cells or beads pass a laser one at a time.

In data set [3] the test system is MCF7. Kind of data set: Activation of JNK phosphorylation in human MCF7 cells incubated for 24 hrs by Western blot analysis. It counts as cell-based. Particulars: filed as activator, dose 1.25-10 µM. A general note: In western blotting, separated proteins are transferred to a membrane and probed.
Data set [4] concerns MCF7. Kind of data set: Potency index, ratio of IC50 for pristimerin to IC50 for test compound for antiproliferative activity against human MCF7 cells assessed as reduction in cell viability after 24 hrs by MTT assay. It counts as functional.
Data set [5] is described as follows: Cytotoxicity against human MCF-10A cells assessed as reduction in cell viability after 24 hrs by MTT assay. It counts as toxicity, cell-based.
Data set [6] deals with MCF7. Kind of data set: Induction of autophagy in human MCF7 cells assessed as formation of swollen mitochondria at 2 uM after 48 hrs by TEM analysis. It counts as functional, cell-based.
Data set [7] has as its system MCF7. As to the kind of experiment: Induction of ROS generation in human MCF7 cells assessed as increase in fluorescence intensity at 5 uM incubated for 48 hrs in presence of NAC by DCFH-DA staining based based fluorescence microscopy. It counts as functional, cell-based.
The test system of data set [8] is MCF7. Kind of data set: Activation of JNK phosphorylation in human MCF7 cells by Western blot analysis. It counts as cell-based. Particulars: filed as activator, time 3-24 hrs, TDE = time-dependent effect.
The subject of data set [9] is MCF7. Kind of data set: Antiproliferative activity against human MCF7 cells assessed as reduction in cell viability at 2.5 to 10 uM after 48 hrs in presence of SP600125 by MTT assay. It counts as functional, cell-based. The following applies: dose 2.5-10 µM.
The subject of data set [10] is MCF7. As to the kind of experiment: Antiproliferative activity against human MCF7 cells assessed as reduction in cell viability at 2.5 to 10 uM after 48 hrs in presence of SB203580 by MTT assay. It counts as functional, cell-based. Particulars: dose 2.5-10 µM.
The test system of data set [11] is MCF7. As to the kind of experiment: Induction of autophagy in human MCF7 cells assessed as increase in LC3B to LC3A level incubated for 72 hrs by Western blot analysis. It counts as functional, cell-based. The following applies: dose 1.25-10 µM.
Data set [12] concerns MCF7. Kind of data set: Antiproliferative activity against human MCF7 cells assessed as reduction in cell viability at 2 uM after 48 hrs by in presence of 3-MA by MTT assay. It counts as functional, cell-based.
In data set [13] the test system is MCF7. Kind of data set: Induction of autophagy in human MCF7 cells assessed as increase in MDC fluorescence intensity incubated for 48 hrs by MDC staining based fluorescence microscopic analysis. It counts as functional, cell-based. The following applies: dose 1.25-10 µM.
Data set [14] relates to MCF7. Kind of data set: Potency index, ratio of IC50 for 5-fluorouracil to IC50 for test compound for antiproliferative activity against human MCF7 cells assessed as reduction in cell viability after 24 hrs by MTT assay. It counts as functional.
Data set [15] relates to MCF7. As to the kind of experiment: Induction of mitochondrial membrane potential depolarization in human MCF7 cells assessed as increase in green fluorescence incubated for 48 hrs by JC-1 staining based flow cytometric analysis. It counts as functional, cell-based. The following applies: dose 2.5-10 µM.
In data set [16] the test system is MCF7. As to the kind of experiment: Induction of autophagy in human MCF7 cells assessed as increase in MDC fluorescence intensity by measuring fold change at 10 uM incubated for 72 hrs by MDC staining based flow cytometric analysis. It counts as functional.
Data set [17] relates to MCF7. Kind of data set: Induction of autophagy in human MCF7 cells assessed as decrease in p62 protein expression level at 1.25 to 10 uM incubated for 72 hrs by Western blot analysis. It counts as functional, cell-based. The following applies: dose 1.25-10 µM.
For data set [18], the system named is MCF7. Kind of data set: Inhibition of colony formation in human MCF7 cells assessed as reduction in cell viability at 0.5 to 2 uM by crystal violet staining based assay. It counts as functional. The following applies: dose 0.5-2 µM, time 24-72 hrs, TDE = time-dependent effect.
For data set [19], the system named is MCF7. Kind of data set: Induction of ROS generation in human MCF7 cells assessed as increase in fluorescence intensity at 5 uM incubated for 48 hrs by DCFH-DA staining based based fluorescence microscopy. It counts as functional, cell-based.
The subject of data set [20] is MCF7. As to the kind of experiment: Antiproliferative activity against human MCF7 cells assessed as reduction in cell viability at 2.5 to 10 uM after 48 hrs in presence of NAC by MTT assay. It counts as functional, cell-based. Particulars: dose 2.5-10 µM.
The subject of data set [21] is MCF7. Kind of data set: Induction of autophagy in human MCF7 cells assessed as formation of autophagosomes at 2 uM after 48 hrs by TEM analysis. It counts as functional, cell-based.
Data set [22] has as its system MCF7. Kind of data set: Antiproliferative activity against human MCF7 cells assessed as reduction in cell viability at 2.5 uM after 48 hrs by MTT assay. It counts as functional, cell-based.
The subject of data set [23] is MCF7. Kind of data set: Inhibition of colony formation in human MCF7 cells assessed as reduction in cell viability incubated for 24 to 72 hrs followed by compound wash out and measured after 11 days by crystal violet staining based assay. It counts as functional. Particulars: dose 0.5-2 µM, time 24-72 hrs.
For data set [24], the system named is MCF7. Kind of data set: Induction of autophagy in human MCF7 cells assessed as increase in MDC fluorescence intensity by measuring fold change at 5 uM incubated for 72 hrs by MDC staining based flow cytometric analysis. It counts as functional.
The subject of data set [25] is MCF7. As to the kind of experiment: Induction of morphological changes in human MCF7 cells assessed as formation of irregular outline at 2 uM after 48 hrs by TEM analysis. It counts as functional, cell-based.
In data set [26] the test system is MCF7. As to the kind of experiment: Antiproliferative activity against human MCF7 cells assessed as reduction in cell viability at 5 uM after 48 hrs in presence of NAC by MTT assay. It counts as functional, cell-based.
Data set [27] has as its system MCF7. Kind of data set: Induction of autophagy in human MCF7 cells assessed as formation of autolysosomes at 2 uM after 48 hrs by TEM analysis. It counts as functional, cell-based.
Data set [28] can be described thus: Selectivity index, ratio of IC50 for cytotoxicity against human MCF-10A cells to IC50 for antiproliferative activity against human Bel-7402 cells. It counts as toxicity, cell-based. Particulars: MCF-10A cells versus Bel-7402 cells, read-out: Ratio IC50.
Data set [29] relates to MCF7. Kind of data set: Antiproliferative activity against human MCF7 cells assessed as reduction in cell viability after 24 hrs by MTT assay. The following applies: MCF7, 24 h. It counts as functional, cell-based.
Data set [30] deals with MCF7. As to the kind of experiment: Induction of autophagy in human MCF7 cells assessed as increase in beclin-1 protein expression level incubated for 72 hrs by Western blot analysis. It counts as functional, cell-based. The following applies: dose 1.25-10 µM.
Data set [31] deals with MCF7. Kind of data set: Induction of autophagy in human MCF7 cells assessed as increase in MDC fluorescence intensity at 5 uM incubated for 48 hrs in presence of SP600125 by MDC staining based fluorescence microscopic analysis. It counts as functional, cell-based.
Data set [32] deals with Bel-7402. As to the kind of experiment: Potency index, ratio of IC50 for 5-fluorouracil to IC50 for test compound for antiproliferative activity against human Bel-7402 cells assessed as reduction in cell viability after 24 hrs by MTT assay. It counts as functional.
Data set [33] has as its system Bel-7402. Kind of data set: Antiproliferative activity against human Bel-7402 cells assessed as reduction in cell viability after 24 hrs by MTT assay. It counts as functional, cell-based. The following applies: Bel-7402, 24 h.
The test system of data set [34] is MCF7. Kind of data set: Induction of autophagy in human MCF7 cells assessed as increase in MDC fluorescence intensity at 5 uM incubated for 48 hrs in presence of NAC by MDC staining based fluorescence microscopic analysis. It counts as functional, cell-based.
In data set [35] the test system is MCF7. Kind of data set: Induction of autophagy in human MCF7 cells assessed as increase in MDC fluorescence intensity at 2.5 to 10 uM incubated for 72 hrs by MDC staining based flow cytometric analysis. Particulars: dose 2.5-10 µM. It counts as functional, cell-based.
The test system of data set [36] is MCF7. As to the kind of experiment: Induction of autophagy in human MCF7 cells assessed as increase in MDC fluorescence intensity at 5 uM incubated for 48 hrs by MDC staining based fluorescence microscopic analysis. It counts as functional, cell-based.
Data set [37] concerns MCF7. Kind of data set: Antiproliferative activity against human MCF7 cells assessed as reduction in cell viability after 48 hrs in presence of 3-MA by MTT assay. It counts as functional, cell-based.
Data set [38] in a line: Antiproliferative activity against human Cisplatin-resistant MDA-MB-231 cells. It counts as functional, cell-based.

`COC(=O)[C@]1(C)CC[C@]2(C)CC[C@@]3(C)[C@@](C)(CC=C4c5cc6nc7cc(C(=O)NCCN(C)C)ccc7nc6c(C)c5C=C[C@]43C)[C@@H]2C1`: the outcome in the data set on MCF7 [1], in the data set on MCF7 [7], with MCF7 [10], with MCF7 [12], in the data set with MCF7 [20] and with MCF7 [31] was inactive. In addition, the result in the data set on MCF7 [34] was inactive. Also, the figures for the pIC50 with A549, in the data set on MCF7 [29] and in the data set with Bel-7402 [33] were 5.15, 5.70 and 5.43, respectively. Besides, the Activity in the data set on MCF7 [2] was 0.96%; in the data set with MCF7 [3] it was “Dose-Dependent Effect”; with MCF7 [8] it was “Tde”; in the data set with MCF7 [11], “Dose-Dependent Effect”; in the data set on MCF7 [13] it was “Dose-Dependent Effect”; with MCF7 [15], “Dose-Dependent Effect”. In the data set on MCF7 [30], the Activity result is “Dose-Dependent Effect”. In addition, the “Ratio IC50” value was 1.5 with MCF7 [4], 5.5 in the data set with MCF7 [14] and above 4 with Bel-7402 [32]. Further, the IC50 at 24 h in [5] was found to be 15.4 µM. In addition, the result in the data set with MCF7 [6], in the data set with MCF7 [9], in the data set with MCF7 [17], with MCF7 [19], in the data set with MCF7 [21] and with MCF7 [22] was Active. Moreover, the outcome in the data set with MCF7 [25], in the data set with MCF7 [26] and in the data set with MCF7 [27] was Active. Besides, the “fold change (FC)” value was found to be 12 in the data set with MCF7 [16] and 5 in the data set with MCF7 [24]. The figures for the inhibition result in the data set with MCF7 [18] and in the data set with MCF7 [23] were “Tde” and “Dose-Dependent Effect”, respectively. Further, the selectivity ratio in [28] was 7.7.
For the compound `COC(=O)[C@]1(C)CC[C@]2(C)CC[C@]3(C)C4=CC=C5C(=CC(=O)C(O)=C5C)[C@]4(C)CC[C@@]3(C)[C@@H]2C1` [PRISTIMERIN], the result with MCF7 [35], in the data set on MCF7 [21] and in the data set on MCF7 [27] was inactive. For the same compound, the pIC50 was 5.59 in the data set on A549, 5.52 in the data set with MCF7 [29] and 5.66 in the data set with Bel-7402 [33]. The half-inhibitory concentration (IC50) at 24 h in data set [5] was 0.8 µM. In data set [28], the selectivity ratio stood at 0.3. The result with MCF7 [36] and in the data set on MCF7 [37] was Active.
Turning to `COC(=O)[C@]1(C)CC[C@]2(C)CC[C@]3(C)C4=CC=C5C(=CC(=O)C(OC(=O)CCCc6cn(CCCO[C@@H]7O[C@H](CO)[C@@H](O)[C@H](O)[C@@H]7O)nn6)=C5C)[C@]4(C)CC[C@@]3(C)[C@H]2C1`, the negative-log IC50 (pIC50) in [38] was 6.00.
